Measured values: ChEMBL document CHEMBL4616628, “Unexpected small molecules as novel SIRT2 suicide inhibitors” (Bioorg Med Chem, 2020)
pIC50: −log10 of the molar value. The source made the active and inactive calls. No cut-off for these calls is given here.

How the values were obtained:
[1] = molecular target: T1, NAD-dependent protein deacetylase sirtuin-1 (Homo sapiens, UniProt Q96EB6); assay: Inhibition of SIRT1 deacetylation activity (unknown origin) using H3K9Ac (4 to 15 residues) as substrate by HPLC analysis
T1 sequence (Q96EB6 whole entry): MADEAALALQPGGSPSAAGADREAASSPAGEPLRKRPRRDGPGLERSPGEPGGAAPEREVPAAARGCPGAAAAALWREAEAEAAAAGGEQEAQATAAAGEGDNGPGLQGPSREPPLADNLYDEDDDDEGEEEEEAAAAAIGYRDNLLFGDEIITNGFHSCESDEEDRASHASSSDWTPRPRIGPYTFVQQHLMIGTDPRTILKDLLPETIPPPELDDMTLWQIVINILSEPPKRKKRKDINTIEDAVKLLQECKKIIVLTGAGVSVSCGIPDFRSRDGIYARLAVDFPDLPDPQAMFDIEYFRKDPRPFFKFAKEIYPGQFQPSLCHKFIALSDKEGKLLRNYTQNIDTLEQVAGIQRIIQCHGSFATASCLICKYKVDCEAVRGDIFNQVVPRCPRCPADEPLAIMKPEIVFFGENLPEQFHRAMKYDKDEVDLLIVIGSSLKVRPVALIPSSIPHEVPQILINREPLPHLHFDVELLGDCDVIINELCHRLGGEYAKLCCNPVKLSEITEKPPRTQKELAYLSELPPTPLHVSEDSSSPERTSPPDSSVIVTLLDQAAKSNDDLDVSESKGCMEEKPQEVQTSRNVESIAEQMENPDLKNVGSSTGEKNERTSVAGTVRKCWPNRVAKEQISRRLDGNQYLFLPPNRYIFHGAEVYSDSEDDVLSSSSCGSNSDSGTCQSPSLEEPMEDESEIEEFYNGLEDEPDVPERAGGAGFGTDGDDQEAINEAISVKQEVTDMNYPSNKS

[2] = molecular target: NAD-dependent protein deacylase sirtuin-5, mitochondrial (Homo sapiens, UniProt Q9NXA8); assay: Inhibition of SIRT5 desuccinylation activity (unknown origin) using H3K9Su (4 to 15 residues) as substrate by HPLC analysis
Sequence of NAD-dependent protein deacylase sirtuin-5, mitochondrial (Q9NXA8 whole entry, the tested form may be a part): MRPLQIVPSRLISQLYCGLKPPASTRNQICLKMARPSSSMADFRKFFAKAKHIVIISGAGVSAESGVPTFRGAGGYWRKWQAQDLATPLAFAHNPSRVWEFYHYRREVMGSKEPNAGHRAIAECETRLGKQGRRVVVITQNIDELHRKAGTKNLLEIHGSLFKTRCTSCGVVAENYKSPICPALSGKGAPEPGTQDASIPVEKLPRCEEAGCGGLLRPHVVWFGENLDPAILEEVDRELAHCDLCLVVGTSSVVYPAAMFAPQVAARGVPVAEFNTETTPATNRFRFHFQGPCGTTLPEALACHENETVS

[3] = molecular target: T2, NAD-dependent protein deacetylase sirtuin-2 (Homo sapiens, UniProt Q8IXJ6); assay: Inhibition of SIRT2 deacetylation activity (unknown origin) using H3K9Ac ( 4 to 15 residues) as substrate by HPLC analysis
T2 sequence (Q8IXJ6 whole entry): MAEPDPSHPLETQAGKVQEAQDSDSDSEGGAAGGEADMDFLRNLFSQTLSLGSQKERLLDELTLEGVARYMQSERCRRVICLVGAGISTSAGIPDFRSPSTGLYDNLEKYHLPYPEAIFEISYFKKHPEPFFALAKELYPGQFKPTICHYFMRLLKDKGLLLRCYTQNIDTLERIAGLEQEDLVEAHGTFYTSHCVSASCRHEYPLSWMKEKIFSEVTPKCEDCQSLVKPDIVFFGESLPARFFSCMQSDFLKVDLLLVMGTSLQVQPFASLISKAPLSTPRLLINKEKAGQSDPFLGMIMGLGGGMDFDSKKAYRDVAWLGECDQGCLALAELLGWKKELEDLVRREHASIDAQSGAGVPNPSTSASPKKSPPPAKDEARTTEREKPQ

[4] = molecular target: T3, NAD-dependent protein deacetylase sirtuin-3, mitochondrial (Homo sapiens, UniProt Q9NTG7); assay: Inhibition of SIRT3 deacetylation activity (unknown origin) using H3K9Ac (4 to 15 residues) as substrate by HPLC analysis
T3 sequence (Q9NTG7 whole entry): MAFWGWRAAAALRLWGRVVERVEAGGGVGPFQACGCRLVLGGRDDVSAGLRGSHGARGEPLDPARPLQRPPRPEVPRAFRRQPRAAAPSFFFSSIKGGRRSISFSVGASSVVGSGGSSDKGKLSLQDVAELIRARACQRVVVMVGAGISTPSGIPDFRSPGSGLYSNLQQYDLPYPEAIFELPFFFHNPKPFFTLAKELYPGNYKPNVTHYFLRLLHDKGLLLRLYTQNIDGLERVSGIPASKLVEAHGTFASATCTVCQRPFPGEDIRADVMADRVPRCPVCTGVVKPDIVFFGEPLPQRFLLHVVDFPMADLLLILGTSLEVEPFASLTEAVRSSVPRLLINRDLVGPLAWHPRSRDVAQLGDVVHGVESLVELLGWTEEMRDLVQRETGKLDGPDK

[5] = molecular target: T2, NAD-dependent protein deacetylase sirtuin-2; assay: Inhibition of SIRT2 debenzoylation activity (unknown origin) using benzoylated histone H4K8 peptide (3 to 13 residues ) as substrate by HPLC analysis
[6] = molecular target: T4, NAD-dependent protein deacetylase sirtuin-2 (Homo sapiens) (UniProt Q8IXJ6); assay: Irreversible inhibition of SIRT2 deacetylation activity (unknown origin) up to 40 uM using H4K8Ac (3 to 13 residues) as substrate
T4 sequence (whole entry): T2 sequence (Q8IXJ6 whole entry)

[7] = molecular target: T2, NAD-dependent protein deacetylase sirtuin-2; assay: Inhibition of SIRT2 deacetylation activity (unknown origin) using H4K8Ac (3 to 13 residues) as substrate by HPLC analysis
[8] = molecular target: T2, NAD-dependent protein deacetylase sirtuin-2; assay: Inhibition of SIRT2 defatty-acylation activity (unknown origin) using H4K8-Myr (3 to 13 residues) as substrate by HPLC analysis
Homo sapiens [9] = organism: Homo sapiens; assay: Selectivity ratio of IC50 for inhibition of SIRT1 deacetylation activity (unknown origin) to IC50 for inhibition of SIRT2 deacetylation activity (unknown origin)
Homo sapiens [10] = organism: Homo sapiens; assay: Selectivity ratio of IC50 for inhibition of SIRT3 deacetylation activity (unknown origin) to IC50 for inhibition of SIRT2 deacetylation activity (unknown origin)
[11] = molecular target: T4, NAD-dependent protein deacetylase sirtuin-2 (Homo sapiens); assay: Inhibition of SIRT2 deacetylation activity (unknown origin) assessed as increase in substrate apparent Km at 2 uM using H4K8Ac (3 to 13 residues) as substrate
Homo sapiens [12] = organism: Homo sapiens; assay: Selectivity ratio of IC50 for inhibition of SIRT5 desuccinylation activity (unknown origin) to IC50 for inhibition of SIRT2 deacetylation activity (unknown origin)

SMILES | pIC50 [1] | pIC50 [2] | pIC50 [3] | pIC50 [4] | pIC50 [5] | inhibition [6] | pIC50 [7] | pIC50 [8] | Ratio IC50 (Homo sapiens [9]) | Ratio IC50 (Homo sapiens [10]) | inhibition [11] | Ratio IC50 (Homo sapiens [12])
Cc1ccc2[nH]cc(C(=O)On3nnc4ccccc43)c2c1 | 4.28 | < 3.70 | 4.13 | 4.07 | – | – | – | – | – | – | – | –
Cc1cc(C)nc(SCC(=O)Nc2ncc(Cc3cccc4ccccc34)s2)n1 | < 3.70 | < 3.70 | – | < 3.70 | – | – | – | – | – | – | – | –

Other lines, results leading:

pIC50 [1] | pIC50 [2] | pIC50 [3] | pIC50 [4] | pIC50 [5] | inhibition [6] | pIC50 [7] | pIC50 [8] | Ratio IC50 (Homo sapiens [9]) | Ratio IC50 (Homo sapiens [10]) | inhibition [11] | Ratio IC50 (Homo sapiens [12]) | SMILES
< 3.70 | < 3.70 | 4.37 | < 3.70 | – | – | – | – | – | – | – | – | O=C(On1nnc2ccccc21)c1ccc[nH]1
< 3.70 | < 3.70 | 4.84 | < 3.70 | 4.09 | Active | 4.66 | 4.13 | 10 | 10 | Active | 10 | O=C(On1nnc2ccccc21)c1c[nH]c2ccccc12
< 3.70 | < 3.70 | 4.25 | < 3.70 | – | – | – | – | – | – | – | – | O=C(On1nnc2ccccc21)c1cc[nH]c1
4.39 | < 3.70 | 4.11 | – | – | – | – | – | – | – | – | – | O=C(On1nnc2ncccc21)c1c[nH]c2ccc(Br)cc12
